Measurements reported in patent US9345904B2, “Photodynamic therapy using photosensitizing agent or 5-aminolevulinic acid” (SBI Pharmaceuticals Co., Ltd., priority 2011, dated 2016).

Key:
MKN45 cells = assay: Cell-killing effect of ALA-PDT by wavelength, MTT assay survival rate; type: cell-based
Method: MKN45 cells (purchased from Riken Cell Bank) cultured in a 35-mm dish were cultured for 4 hours in the presence of 0.168 mg/mL ALA. Then, 5 mL of a hemoglobin solution was dispensed into a 60-mm dish, placed on the 35-mm dish in which the culture was performed in the presence of ALA, and irradiated with light. Light shielding by hemoglobin was provided to imitate the inside of a living body because hemoglobin is considered to be a leading cause of the inhibition of light invasion in photodynamic therapy. The culture was irradiated to 4.5 J/cm^2 (5 mW/cm^2, 15 min.) with light having a peak at 402 nm, 502 nm, 517 nm, 529 nm, or 636 nm. […]
The survival rate of cells after light irradiation was measured using an MTT assay method. […] Thereafter, 200 μL thereof was dispensed into a 96-well plate and measured for absorbance at 570 nm using a plate reader (from Bio-Rad). The survival rate was measured from the absorbance of each sample and expressed relative to the absorbance after a medium without cultured cells were subjected to these procedures, set to 0%, and the absorbance after such cells cultured as control were subjected to these procedures, set to 100%. Optical power density with light shielding by hemoglobin was measured using Power Meter (from Scientex, Inc.); the results are shown in FIG. 3.

HeLa cells = assay: Cancer therapeutic effect of ALA-PDT by wavelength, hematoxylin-eosin staining of subcutaneous HeLa tumors; type: in vivo, SCID mice; settings: for tumor tissue histology (effect of ALA-PDT): 750 mg/kg b.w. ALA tail vein, 100 J/cm^2, after 4 hours, tissue taken following day
Method: 5×10^5 HeLa cells were subcutaneously injected into SCID mice of the mouse numbers 1 to 3. […] After maintaining the mice until the size of tumors reaches that described in Table 1, 750 mg/kg b.w. of ALA was injected into the tail vein of the mice of numbers 1 and 2. After 4 hours, the mouse of number 1 was irradiated with LED light having a peak at a wavelength of 517 nm and the mouse of number 2 was irradiated with LED light having a peak at a wavelength of 629 nm. The SCID mice irradiated with light listed above were each anesthetized on the following day; a portion containing HeLa cells was cut out, fixed in formaldehyde, subjected to dehydration treatment with ethanol and xylene, and then embedded in paraffin; and a small piece thinly sliced into a thickness of 5 μm was stained with hematoxylin-eosin to observe the tissue under a light microscope.

`NCC(=O)CCC(=O)O` [ALA, 5-aminolevulinic acid] was tested, and the “cell-killing effect of lights at 502 nm, 517 nm and 529 nm relative to light at 636 nm” value (MKN45 cells; with light shielding by hemoglobin, lower optical power densities at 502-529 nm) was “comparable cell-killing effects compared to light at 636 nm”, the “cell-killing effect of ALA-PDT” value (MKN45 cells; without light shielding by hemoglobin, 0.168 mg/mL ALA 4 hours, 4.5 J/cm^2, lights with peak at 402, 502, 517, 529 or 636 nm compared) was “stronger in the order of lights having a peak at 402 nm, 502 nm, 517 nm, 529 nm, or 636 nm” and the “effect of ALA-PDT at 517 nm compared with 629 nm (cell density, amount of blebs)” value (HeLa cells; mouse number 1 (517 nm) versus mouse number 2 (629 nm), tumors about 4 mm in height) was “the effect of ALA-PDT was higher”. For the same compound, the “tumor tissue histology (effect of ALA-PDT)” value (HeLa cells; mouse number 1, LED 517 nm) was “the condensation of the cytoplasm, the disappearance of the nucleus, and clearance between cells due to the generation of blebs were observed” and the “tumor tissue histology (effect of ALA-PDT)” value (HeLa cells; mouse number 2, LED 629 nm) was “the condensation of the cytoplasm, the disappearance of the nucleus, and clearance between cells due to the generation of blebs were observed”.
